# Test results from ChEMBL document CHEMBL3808371, “Design, synthesis and biological evaluation of diaziridinyl quinone isoxazole hybrids” (Eur J Med Chem, 2016).
# Activity calls are given as the source filed them. The calls are words filed in the database; no cut-off is given here.
# What was measured:
# Staphylococcus aureus [1] = assay: Antibiofilm activity against Staphylococcus aureus MTCC 96 after 24 hrs by crystal violet staining based assay; assay type: functional, organism-based; conditions: MTCC 96, 24 h
# [2] = Cytotoxicity against human PC3 cells after 72 hrs by XTT assay; assay type: functional, cell-based; conditions: PC-3, 72 h
# Staphylococcus aureus [3] = assay: Antibiofilm activity against Staphylococcus aureus MLS16 MTCC 2940 after 24 hrs by crystal violet staining based assay; assay type: functional, organism-based; conditions: MLS16 MTCC 2940, 24 h
# Bacillus subtilis [4] = assay: Bactericidal activity against Bacillus subtilis MTCC 121 after 24 hrs by serial dilution method; assay type: functional; conditions: MTCC 121, 24 h
# Micrococcus luteus [5] = assay: Bactericidal activity against Micrococcus luteus MTCC 2470 after 24 hrs by serial dilution method; assay type: functional; conditions: MTCC 2470, 24 h
# Raoultella planticola [6] = assay: Antimicrobial activity against Klebsiella planticola MTCC 530 after 24 hrs by well diffusion method; assay type: functional
# Raoultella planticola [7] = assay: Bactericidal activity against Klebsiella planticola MTCC 530 after 24 hrs by serial dilution method; assay type: functional; conditions: MTCC 530, 24 h
# Staphylococcus aureus [8] = assay: Bactericidal activity against Staphylococcus aureus MTCC 96 after 24 hrs by serial dilution method; assay type: functional; conditions: MTCC 96, 24 h
# Micrococcus luteus [9] = assay: Antimicrobial activity against Micrococcus luteus MTCC 2470 after 24 hrs by well diffusion method; assay type: functional
# Micrococcus luteus [10] = assay: Antibiofilm activity against Micrococcus luteus MTCC 2470 after 24 hrs by crystal violet staining based assay; assay type: functional, organism-based; conditions: MTCC 2470, 24 h
# Bacillus subtilis [11] = assay: Antibiofilm activity against Bacillus subtilis MTCC 121 after 24 hrs by crystal violet staining based assay; assay type: functional, organism-based; conditions: MTCC 121, 24 h
# Staphylococcus aureus [12] = assay: Antimicrobial activity against Staphylococcus aureus MLS16 MTCC 2940 after 24 hrs by well diffusion method; assay type: functional
# Pseudomonas aeruginosa = assay: Antimicrobial activity against Pseudomonas aeruginosa MTCC 2453 after 24 hrs by well diffusion method; assay type: functional
# Escherichia coli = assay: Antimicrobial activity against Escherichia coli MTCC 739 after 24 hrs by well diffusion method; assay type: functional
# A549 [13] = assay: Cytotoxicity against human A549 cells after 72 hrs by XTT assay; assay type: functional, cell-based; conditions: A549, 72 h
# A549 [14] = assay: Selectivity ratio of IC50 for human PC3 cells to IC50 for human A549 cells; assay type: functional
# Raoultella planticola [15] = assay: Antibiofilm activity against Klebsiella planticola MTCC 530 after 24 hrs by crystal violet staining based assay; assay type: functional, organism-based; conditions: MTCC 530, 24 h
# Candida albicans [16] = assay: Antimicrobial activity against Candida albicans MTCC 3017 after 24 hrs by well diffusion method; assay type: functional; conditions: MTCC 3017, 24 h
# Staphylococcus aureus [17] = assay: Bactericidal activity against Staphylococcus aureus MLS16 MTCC 2940 after 24 hrs by serial dilution method; assay type: functional; conditions: MLS16 MTCC 2940, 24 h
# Bacillus subtilis [18] = assay: Antimicrobial activity against Bacillus subtilis MTCC 121 after 24 hrs by well diffusion method; assay type: functional
# Staphylococcus aureus [19] = assay: Antimicrobial activity against Staphylococcus aureus MTCC 96 after 24 hrs by well diffusion method; assay type: functional
# Candida parapsilosis [20] = assay: Fungicidal activity against Candida parapsilosis MTCC 1744 after 24 hrs by serial dilution method; assay type: functional; conditions: Lodderomyces parapsilosis, MTCC 1744, 24 h
# Candida albicans [21] = assay: Fungicidal activity against Candida albicans MTCC 7315 after 24 hrs by serial dilution method; assay type: functional; conditions: MTCC 7315, 24 h
# Candida albicans [22] = assay: Fungicidal activity against Candida albicans MTCC 3017 after 24 hrs by serial dilution method; assay type: functional; conditions: MTCC 3017, 24 h
# Pichia sporocuriosa [23] = assay: Antimicrobial activity against Issatchenkia hanoiensis MTCC 4755 after 24 hrs by well diffusion method; assay type: functional; conditions: MTCC 4755, 24 h
# [Candida] aaseri [24] = Antimicrobial activity against Candida aaseri MTCC 1962 after 24 hrs by well diffusion method; assay type: functional; conditions: Yamadazyma aaseri, MTCC 1962, 24 h
# Pichia sporocuriosa [25] = assay: Fungicidal activity against Issatchenkia hanoiensis MTCC 4755 after 24 hrs by serial dilution method; assay type: functional; conditions: MTCC 4755, 24 h
# Nakaseomyces glabratus [26] = assay: Antimicrobial activity against Candida glabrata MTCC 3019 after 24 hrs by well diffusion method; assay type: functional; conditions: MTCC 3019, 24 h
# [Candida] aaseri [27] = Fungicidal activity against Candida aaseri MTCC 1962 after 24 hrs by serial dilution method; assay type: functional; conditions: Yamadazyma aaseri, MTCC 1962, 24 h
# Pichia kudriavzevii [28] = assay: Fungicidal activity against Candida krusei MTCC 3020 after 24 hrs by serial dilution method; assay type: functional; conditions: MTCC 3020, 24 h
# Candida albicans [29] = assay: Fungicidal activity against Candida albicans MTCC 3018 after 24 hrs by serial dilution method; assay type: functional; conditions: MTCC 3018, 24 h
# Candida albicans [30] = assay: Antimicrobial activity against Candida albicans MTCC 1637 after 24 hrs by well diffusion method; assay type: functional; conditions: MTCC 1637, 24 h
# Candida albicans [31] = assay: Antimicrobial activity against Candida albicans MTCC 3958 after 24 hrs by well diffusion method; assay type: functional; conditions: MTCC 3958, 24 h
# Candida albicans [32] = assay: Fungicidal activity against Candida albicans MTCC 183 after 24 hrs by serial dilution method; assay type: functional; conditions: MTCC 183, 24 h
# Candida albicans [33] = assay: Fungicidal activity against Candida albicans MTCC 3958 after 24 hrs by serial dilution method; assay type: functional; conditions: MTCC 3958, 24 h
# Nakaseomyces glabratus [34] = assay: Fungicidal activity against Candida glabrata MTCC 3019 after 24 hrs by serial dilution method; assay type: functional; conditions: MTCC 3019, 24 h
# Candida albicans [35] = assay: Antimicrobial activity against Candida albicans MTCC 854 after 24 hrs by well diffusion method; assay type: functional; conditions: MTCC 854, 24 h
# Candida albicans [36] = assay: Fungicidal activity against Candida albicans MTCC 854 after 24 hrs by serial dilution method; assay type: functional; conditions: MTCC 854, 24 h
# Pichia kudriavzevii [37] = assay: Antimicrobial activity against Candida krusei MTCC 3020 after 24 hrs by well diffusion method; assay type: functional; conditions: MTCC 3020, 24 h
# Candida albicans [38] = assay: Antimicrobial activity against Candida albicans MTCC 7315 after 24 hrs by well diffusion method; assay type: functional; conditions: MTCC 7315, 24 h
# Candida albicans [39] = assay: Antimicrobial activity against Candida albicans MTCC 4748 after 24 hrs by well diffusion method; assay type: functional; conditions: MTCC 4748, 24 h
# Candida albicans [40] = assay: Fungicidal activity against Candida albicans MTCC 1637 after 24 hrs by serial dilution method; assay type: functional; conditions: MTCC 1637, 24 h
# Candida albicans [41] = assay: Antimicrobial activity against Candida albicans MTCC 227 after 24 hrs by well diffusion method; assay type: functional; conditions: MTCC 227, 24 h
# Candida albicans [42] = assay: Antimicrobial activity against Candida albicans MTCC 3018 after 24 hrs by well diffusion method; assay type: functional; conditions: MTCC 3018, 24 h
# Candida albicans [43] = assay: Antimicrobial activity against Candida albicans MTCC 183 after 24 hrs by well diffusion method; assay type: functional; conditions: MTCC 183, 24 h
# Candida albicans [44] = assay: Fungicidal activity against Candida albicans MTCC 227 after 24 hrs by serial dilution method; assay type: functional; conditions: MTCC 227, 24 h
# Candida albicans [45] = assay: Fungicidal activity against Candida albicans MTCC 4748 after 24 hrs by serial dilution method; assay type: functional; conditions: MTCC 4748, 24 h
# Candida parapsilosis [46] = assay: Antimicrobial activity against Candida parapsilosis MTCC 1744 after 24 hrs by well diffusion method; assay type: functional; conditions: Lodderomyces parapsilosis, MTCC 1744, 24 h
smiles,measurement,setting,value
O=C1C=C(N2CC2)C(=O)C(c2cc(-c3ccc(C(=O)N4CCCCC4)s3)on2)=C1N1CC1,IC50,Staphylococcus aureus [1],11.2 µM
same,IC50,[2],21.3 µM
same,IC50,Staphylococcus aureus [3],9.8 µM
same,MBC,Bacillus subtilis [4],15.6 µg/mL
same,MBC,Micrococcus luteus [5],125 µg/mL
same,MIC,"Raoultella planticola [6]; MTCC 530, 24 h",7.8 µg/mL
same,MBC,Raoultella planticola [7],15.6 µg/mL
same,MBC,Staphylococcus aureus [8],31.2 µg/mL
same,MIC,"Micrococcus luteus [9]; MTCC 2470, 24 h",62.5 µg/mL
same,IC50,Micrococcus luteus [10],35.6 µM
same,IC50,Bacillus subtilis [11],2.8 µM
same,MIC,"Staphylococcus aureus [12]; MLS16 MTCC 2940, 24 h",15.6 µg/mL
same,MIC,"Pseudomonas aeruginosa; MTCC 2453, 24 h",> 125 µg/mL
same,MIC,"Escherichia coli; MTCC 739, 24 h",> 125 µg/mL
same,IC50,A549 [13],1.7 µM
same,Ratio IC50,A549 [14],12
same,IC50,Raoultella planticola [15],5.4 µM
same,MIC,Candida albicans [16],15.6 µg/mL
same,MBC,Staphylococcus aureus [17],62.5 µg/mL
same,MIC,"Bacillus subtilis [18]; MTCC 121, 24 h",3.9 µg/mL
same,MIC,"Staphylococcus aureus [19]; MTCC 96, 24 h",15.6 µg/mL
O=C1C=C(N2CC2)C(=O)C(c2cc(-c3ccc(C(=O)N4CCOCC4)s3)on2)=C1N1CC1,MFC,Candida parapsilosis [20],62.5 µg/mL
same,IC50,Staphylococcus aureus [1],2.5 µM
same,MFC,Candida albicans [21],125 µg/mL
same,IC50,[2],1.4 µM
same,MFC,Candida albicans [22],15.6 µg/mL
same,IC50,Staphylococcus aureus [3],1.9 µM
same,MIC,Pichia sporocuriosa [23],15.6 µg/mL
same,MBC,Bacillus subtilis [4],3.9 µg/mL
same,MIC,[Candida] aaseri [24],31.2 µg/mL
same,MFC,Pichia sporocuriosa [25],31.2 µg/mL
same,MBC,Micrococcus luteus [5],31.2 µg/mL
same,MIC,"Raoultella planticola [6]; MTCC 530, 24 h",7.8 µg/mL
same,MIC,Nakaseomyces glabratus [26],31.2 µg/mL
same,MFC,[Candida] aaseri [27],125 µg/mL
same,MBC,Raoultella planticola [7],15.6 µg/mL
same,MBC,Staphylococcus aureus [8],7.8 µg/mL
same,MFC,Pichia kudriavzevii [28],15.6 µg/mL
same,MFC,Candida albicans [29],125 µg/mL
same,MIC,Candida albicans [30],31.2 µg/mL
same,MIC,"Micrococcus luteus [9]; MTCC 2470, 24 h",15.6 µg/mL
same,IC50,Micrococcus luteus [10],9.8 µM
same,MIC,Candida albicans [31],15.6 µg/mL
same,MFC,Candida albicans [32],31.2 µg/mL
same,MFC,Candida albicans [33],62.5 µg/mL
same,IC50,Bacillus subtilis [11],2.8 µM
same,MIC,"Staphylococcus aureus [12]; MLS16 MTCC 2940, 24 h",3.9 µg/mL
same,MIC,"Pseudomonas aeruginosa; MTCC 2453, 24 h",> 125 µg/mL
same,MFC,Nakaseomyces glabratus [34],125 µg/mL
same,MIC,"Escherichia coli; MTCC 739, 24 h",> 125 µg/mL
same,MIC,Candida albicans [35],7.8 µg/mL
same,MFC,Candida albicans [36],15.6 µg/mL
same,MIC,Pichia kudriavzevii [37],7.8 µg/mL
same,MIC,Candida albicans [38],62.5 µg/mL
same,IC50,A549 [13],1.5 µM
same,MIC,Candida albicans [39],31.2 µg/mL
same,MFC,Candida albicans [40],62.5 µg/mL
same,IC50,Raoultella planticola [15],5.1 µM
same,MIC,Candida albicans [41],7.8 µg/mL
same,MIC,Candida albicans [16],7.8 µg/mL
same,MIC,Candida albicans [42],62.5 µg/mL
same,MIC,Candida albicans [43],15.6 µg/mL
same,MBC,Staphylococcus aureus [17],3.9 µg/mL
same,MFC,Candida albicans [44],31.2 µg/mL
same,MFC,Candida albicans [45],125 µg/mL
same,MIC,"Bacillus subtilis [18]; MTCC 121, 24 h",3.9 µg/mL
same,MIC,Candida parapsilosis [46],15.6 µg/mL
same,MIC,"Staphylococcus aureus [19]; MTCC 96, 24 h",3.9 µg/mL
Clc1ccc(COC(Cn2ccnc2)c2ccc(Cl)cc2Cl)c(Cl)c1 (stereo not drawn) [MICONAZOLE],MFC,Candida parapsilosis [20],7.8 µg/mL
same,MFC,Candida albicans [21],7.8 µg/mL
same,MFC,Candida albicans [22],15.6 µg/mL
same,MIC,Pichia sporocuriosa [23],7.8 µg/mL
same,MIC,[Candida] aaseri [24],7.8 µg/mL
same,MFC,Pichia sporocuriosa [25],7.8 µg/mL
same,MIC,Raoultella planticola [6],inactive
same,MIC,Nakaseomyces glabratus [26],7.8 µg/mL
same,MFC,[Candida] aaseri [27],7.8 µg/mL
same,MFC,Pichia kudriavzevii [28],7.8 µg/mL
same,MFC,Candida albicans [29],15.6 µg/mL
same,MIC,Candida albicans [30],7.8 µg/mL
same,MIC,Micrococcus luteus [9],inactive
same,MIC,Candida albicans [31],7.8 µg/mL
same,MFC,Candida albicans [32],15.6 µg/mL
same,MFC,Candida albicans [33],7.8 µg/mL
same,MIC,Staphylococcus aureus [12],inactive
same,MIC,Pseudomonas aeruginosa,inactive
same,MFC,Nakaseomyces glabratus [34],15.6 µg/mL
same,MIC,Escherichia coli,inactive
same,MIC,Candida albicans [35],7.8 µg/mL
same,MFC,Candida albicans [36],7.8 µg/mL
same,MIC,Pichia kudriavzevii [37],7.8 µg/mL
same,MIC,Candida albicans [38],7.8 µg/mL
same,MIC,Candida albicans [39],7.8 µg/mL
same,MFC,Candida albicans [40],15.6 µg/mL
same,MIC,Candida albicans [41],7.8 µg/mL
same,MIC,Candida albicans [16],7.8 µg/mL
same,MIC,Candida albicans [42],7.8 µg/mL
same,MIC,Candida albicans [43],7.8 µg/mL
same,MFC,Candida albicans [44],7.8 µg/mL
same,MFC,Candida albicans [45],15.6 µg/mL
same,MIC,Bacillus subtilis [18],inactive
same,MIC,Candida parapsilosis [46],7.8 µg/mL
same,MIC,Staphylococcus aureus [19],inactive
